Assay [1] deals with T1, SARS-CoV-2 PLpro (nsp3 1564–1878) (Severe acute respiratory syndrome coronavirus 2, UniProt P0DTD1). Nature of the assay: biochemical. Also on record: FRET-quenched peptide (Pro3) cleavage by PLpro, 10 min pre-incubation, slope over 20 min, normalised to no-compound control. The settings on record: high concentration screen, read-out: % of control remaining.
The target in assay [2] is T1, SARS-CoV-2 PLpro (nsp3 1564–1878). Nature of the assay: biochemical. Also on record: FRET-quenched peptide (Pro3) cleavage by PLpro, 10 min pre-incubation, slope over 20 min, normalised to no-compound control. The following applies: low concentration screen, read-out: % of control remaining.

Where a name gives a salt, the structure may show the parent alone. Read-outs that look alike come from different tables or passages of the source.

These results are taken from article PMC8286840, “Identifying SARS-CoV-2 antiviral compounds by screening for small molecule inhibitors of Nsp3 papain-like protease” (Biochemical Journal, 2021).

In the case of `CC(=O)N[C@@H](C)C(=O)O` [Ac-Ala-OH], in assay [1] (Well no.=8696), the remaining activity at 3.75 µM amounted to 96.8%. Moreover, the remaining activity at 1.25 µM in assay [2] (Well no.=8696) amounted to 96.5%.

As for `COc1ccc(-c2cc(=O)c3c(O)cc(O)cc3o2)cc1` [Acacetine], the remaining activity at 3.75 µM in assay [1] (Well no.=3398) was found to be 92.9%. For the same molecule, the remaining activity at 1.25 µM in assay [2] (Well no.=3398) stood at 94.2%.

As for `C[C@H]1O[C@H](O[C@H]2[C@H](O)[C@@H](O)[C@@H](O[C@H]3[C@H](O)[C@@H](O)C(O)O[C@@H]3CO)O[C@@H]2CO)[C@H](O)[C@@H](O)[C@@H]1N[C@H]1C=C(CO)[C@@H](O)[C@H](O)[C@H]1O` (stereo partly drawn) [Acarbose], the remaining activity at 3.75 µM in assay [1] (Well no.=5149) was 104%. For the same molecule, in assay [2] (Well no.=5149), the remaining activity at 1.25 µM was 101%.

Regarding `CCCC(=O)Nc1ccc(OCC(O)CNC(C)C)c(C(C)=O)c1` (stereo not drawn) [Acebutolol (hydrochloride)], the remaining activity at 3.75 µM in assay [1] (Well no.=6747) worked out at 97.2%. Moreover, in assay [2] (Well no.=6747), the remaining activity at 1.25 µM stood at 101%.

As for `O=C(O)COC(=O)Cc1ccccc1Nc1c(Cl)cccc1Cl` [Aceclofenac], in assay [1] (Well no.=2071), the remaining activity at 3.75 µM turned out to be 102%. The remaining activity at 1.25 µM in assay [2] (Well no.=2071) is 103%.

Turning to `Cn1c(=O)c2c(ncn2CC(=O)O)n(C)c1=O` [Acefylline], the remaining activity at 3.75 µM was found to be 100% in assay [1] (Well no.=8081) and 103% in assay [1] (Well no.=8491). Moreover, the remaining activity at 1.25 µM in assay [2] (Well no.=8081) was determined as 102%; in assay [2] (Well no.=8491) it was 105%.

Regarding `CC(=O)N[C@@H](CCC(N)=O)C(=O)O` [Aceglutamide], in assay [1] (Well no.=7402), the remaining activity at 3.75 µM is 102%. Besides, the remaining activity at 1.25 µM in assay [2] (Well no.=7402) is 106%.

Turning to `COc1ccc2c(c1)c(CC(=O)OCC(=O)O)c(C)n2C(=O)c1ccc(Cl)cc1` [Acemetacin], the remaining activity at 3.75 µM in assay [1] (Well no.=2037) was 97.7%. Further, in assay [2] (Well no.=2037), the remaining activity at 1.25 µM amounted to 99.2%.

As for `CC1=CC(=O)NS(=O)(=O)O1` [Acesulfame Potassium], the remaining activity at 3.75 µM in assay [1] (Well no.=5318) turned out to be 93.1%. For the same molecule, the remaining activity at 1.25 µM in assay [2] (Well no.=5318) is 94.9%.

Regarding `CC(N)=O` [Acetamide], the remaining activity at 3.75 µM in assay [1] (Well no.=7) stood at 101%. Moreover, the remaining activity at 1.25 µM in assay [2] (Well no.=7) amounted to 101%.

For `CC(=O)Nc1nnc(S(N)(=O)=O)s1` [Acetazolamide], in assay [1] (Well no.=163), the remaining activity at 3.75 µM came to 103%. Further, the remaining activity at 1.25 µM in assay [2] (Well no.=163) was determined as 101%.

As to `CC(=O)c1ccc(S(=O)(=O)NC(=O)NC2CCCCC2)cc1` [Acetohexamide], the remaining activity at 3.75 µM in assay [1] (Well no.=18) came to 98.9%. Besides, in assay [2] (Well no.=18), the remaining activity at 1.25 µM amounted to 93.4%.

With `CC(=O)OC(C)C[N+](C)(C)C` (stereo not drawn) [Acetyl-beta-methylcholine chloride], in assay [1] (Well no.=107), the remaining activity at 3.75 µM was found to be 98.4%. For the same molecule, in assay [2] (Well no.=107), the remaining activity at 1.25 µM came out at 98.7%.

For the molecule `CC(=O)N[C@@H](CSC/C=C(\C)CC/C=C(\C)CCC=C(C)C)C(=O)O` [Acetyl-farnesyl-cysteine], in assay [1] (Well no.=4342), the remaining activity at 3.75 µM is 102%. Also, the remaining activity at 1.25 µM in assay [2] (Well no.=4342) was 102%.

On to `CC(=O)OCC[N+](C)(C)C` [Acetylcholine], for which the remaining activity at 3.75 µM in assay [1] (Well no.=1550) stood at 98.7%. The remaining activity at 1.25 µM in assay [2] (Well no.=1550) stood at 96.7%.

With `CC(=O)N[C@@H](CS)C(=O)O` [Acetylcysteine], the remaining activity at 3.75 µM in assay [1] (Well no.=6161) was 103%; in assay [1] (Well no.=8266), 101%. For the same molecule, the remaining activity at 1.25 µM was 102% in assay [2] (Well no.=6161) and 99.9% in assay [2] (Well no.=8266).

With `CC(=O)Oc1ccccc1C(=O)O` [Acetylsalicylic acid], the results for the remaining activity at 3.75 µM in assay [1] (Well no.=161) and in assay [1] (Well no.=2067) were 97.3% and 103%, respectively. Further, the remaining activity at 1.25 µM in assay [2] (Well no.=161) is 101%; in assay [2] (Well no.=2067), 102%.

As to `CC(=O)SCC[N+](C)(C)C` [Acetylthiocholine chloride], in assay [1] (Well no.=257), the remaining activity at 3.75 µM amounted to 99.3%. For the same molecule, in assay [2] (Well no.=257), the remaining activity at 1.25 µM was 97.5%.

For the molecule `Cc1cnc(C(=O)O)c[n+]1[O-]` [Acipimox], in assay [1] (Well no.=2069), the remaining activity at 3.75 µM came to 104%. The remaining activity at 1.25 µM in assay [2] (Well no.=2069) amounted to 102%.

Regarding `COc1cc(C)c(/C=C/C(C)=C/C=C/C(C)=C/C(=O)O)c(C)c1C` [Acitretin], the remaining activity at 3.75 µM in assay [1] (Well no.=1817) turned out to be 96.3%. Also, in assay [2] (Well no.=1817), the remaining activity at 1.25 µM was 96.4%.

As to `N[C@H](C(=O)O)[C@@H]1CC(Cl)=NO1` [Acivicin], the remaining activity at 3.75 µM in assay [1] (Well no.=3483) is 97.4%. Further, the remaining activity at 1.25 µM in assay [2] (Well no.=3483) was 96.9%.
